23 molecules from patent publication US9265253B2, “Use of macrocyclic picolinamides as fungicides” (DOW AGROSCIENCES LLC, priority 2013, dated 2016) can be followed below.

Holding throughout (format): in vivo
One experiment concerns Venturia inaequalis. As to the kind of experiment: Apple Scab (VENTIN) disease control. Conditions: Venturia inaequalis, topical, 24 h, 1 Day Protectant, read-out: Disease Control VENTIN 1 DP. The method, then:
Technical grades of materials were dissolved in acetone, which were then mixed with nine volumes of water containing 110 ppm Triton X-100. The fungicide solutions were applied onto wheat seedlings using an automated booth sprayer to run-off. All sprayed plants were allowed to air dry prior to further handling. All fungicides were evaluated using the aforementioned method for their activity vs. all target diseases. Wheat leaf blotch and brown rust activity were also evaluated using track spray applications, in which case the fungicides were formulated as EC formulations, containing 0.1% Trycol 5941 in the spray solutions. Wheat plants (variety Yuma) were grown from seed in a greenhouse in 50% mineral soil/50% soil-less Metro mix until the first leaf was fully emerged, with 7-10 seedlings per pot. These plants were inoculated with an aqueous spore suspension of Septoria tritici either prior to or after fungicide treatments. After inoculation the plants were kept in 100% relative humidity (one day in a dark dew chamber followed by two to three days in a lighted dew chamber at 20° C.) to permit spores to germinate and infect the leaf. The plants were then transferred to a greenhouse set at 20° C. for disease to develop. When disease symptoms were fully expressed on the 1st leaves of untreated plants, infection levels were assessed on a scale of 0 to 100 percent disease severity. Percent disease control was calculated using the ratio of disease severity on treated plants relative to untreated plants. Apple seedlings (variety McIntosh) were grown in soil-less Metro mix, with one plant per pot. Seedlings with two expanding young leaves at the top (older leaves at bottom of the plants were trimmed) were used in the test. Plants were inoculated with a spore suspension of Venturia inaequalis 24 hr after fungicide treatment and kept in a 22° C. dew chamber with 100% RH for 48 hr, and then moved to a greenhouse set at 20° C. for disease to develop. Fungicide formulation, application and disease assessment on the sprayed leaves followed the procedures as described in the Example A.

The test system of experiment [1] is Magnaporthe grisea; Anamorph: Pyricularia oryzae. Nature of the experiment: whole plant or invertebrate. Conditions: Pyricularia oryzae, topical, 24 h, read-out: Disease Control PYRIOR 1 DP.
The next experiment relates to Rhyncosporium secalis. Nature of the experiment: Barley Scald (RHYNSE) disease control. Conditions: Hordeum vulgare, 24 h, 1 Day Protectant, read-out: Disease Control RHYNSE 1 DP. The method, then:
Technical grades of materials were dissolved in acetone, which were then mixed with nine volumes of water containing 110 ppm Triton X-100. The fungicide solutions were applied onto wheat seedlings using an automated booth sprayer to run-off. All sprayed plants were allowed to air dry prior to further handling. All fungicides were evaluated using the aforementioned method for their activity vs. all target diseases. Wheat leaf blotch and brown rust activity were also evaluated using track spray applications, in which case the fungicides were formulated as EC formulations, containing 0.1% Trycol 5941 in the spray solutions. Wheat plants (variety Yuma) were grown from seed in a greenhouse in 50% mineral soil/50% soil-less Metro mix until the first leaf was fully emerged, with 7-10 seedlings per pot. These plants were inoculated with an aqueous spore suspension of Septoria tritici either prior to or after fungicide treatments. After inoculation the plants were kept in 100% relative humidity (one day in a dark dew chamber followed by two to three days in a lighted dew chamber at 20° C.) to permit spores to germinate and infect the leaf. The plants were then transferred to a greenhouse set at 20° C. for disease to develop. When disease symptoms were fully expressed on the 1st leaves of untreated plants, infection levels were assessed on a scale of 0 to 100 percent disease severity. Percent disease control was calculated using the ratio of disease severity on treated plants relative to untreated plants. Barley seedlings (variety Harrington) were propagated in soil-less Metro mix, with each pot having 8 to 12 plants, and used in the test when first leaf was fully emerged. Test plants were inoculated by an aqueous spore suspension of Rhyncosporium secalis 24 hr after fungicide treatments. After inoculation the plants were kept in a dew room at 20° C. with 100% relative humidity for 48 hr. The plants were then transferred to a greenhouse set at 20° C. for disease to develop. Fungicide formulation, application and disease assessment on the sprayed leaves followed the procedures as described in the Example A.

The test system of another experiment is Leptosphaeria nodorum. As to the kind of experiment: Wheat Glume Blotch (LEPTNO) disease control. Conditions: Parastagonospora nodorum, topical, 24 h, 1 Day Protectant, read-out: Disease Control LEPTNO 1 DP. The method, then:
Technical grades of materials were dissolved in acetone, which were then mixed with nine volumes of water containing 110 ppm Triton X-100. The fungicide solutions were applied onto wheat seedlings using an automated booth sprayer to run-off. All sprayed plants were allowed to air dry prior to further handling. All fungicides were evaluated using the aforementioned method for their activity vs. all target diseases. Wheat leaf blotch and brown rust activity were also evaluated using track spray applications, in which case the fungicides were formulated as EC formulations, containing 0.1% Trycol 5941 in the spray solutions. Wheat plants (variety Yuma) were grown from seed in a greenhouse in 50% mineral soil/50% soil-less Metro mix until the first leaf was fully emerged, with 7-10 seedlings per pot. These plants were inoculated with an aqueous spore suspension of Septoria tritici either prior to or after fungicide treatments. After inoculation the plants were kept in 100% relative humidity (one day in a dark dew chamber followed by two to three days in a lighted dew chamber at 20° C.) to permit spores to germinate and infect the leaf. The plants were then transferred to a greenhouse set at 20° C. for disease to develop. When disease symptoms were fully expressed on the 1st leaves of untreated plants, infection levels were assessed on a scale of 0 to 100 percent disease severity. Percent disease control was calculated using the ratio of disease severity on treated plants relative to untreated plants. Wheat plants (variety Yuma) were grown from seed in a greenhouse in 50% mineral soil/50% soil-less Metro mix until the first leaf was fully emerged, with 7-10 seedlings per pot. These plants were inoculated with an aqueous spore suspension of Leptosphaeria nodorum 24 hr after fungicide treatments. After inoculation the plants were kept in 100% relative humidity (one day in a dark dew chamber followed by two days in a lighted dew chamber at 20° C.) to permit spores to germinate and infect the leaf. The plants were then transferred to a greenhouse set at 20° C. for disease to develop. Fungicide formulation, application and disease assessment followed the procedures as described in the Example A.

Turning to `COc1ccnc(C(=O)N[C@H]2CCC[C@H](CCBr)[C@@H](Oc3ccccc3)[C@H](C)OC2=O)c1OC(C)=O` [Compound F80], the pest or weed control at 100 ppm in the experiment with Venturia inaequalis lay in the range of 0 to 80%; in experiment [1], 80 to 100%.

In the case of `CC[C@H]1CCC[C@H](NC(=O)c2nccc(OC)c2OC(C)=O)C(=O)O[C@@H](C)[C@@H]1Oc1ccccc1` [Compound F81], the results for the pest or weed control at 100 ppm (in the experiment on Venturia inaequalis; in the experiment on Rhyncosporium secalis; in experiment [1]) were 0 to 80%, 80 to 100% and 80 to 100%, respectively.

As to `COc1ccnc(C(=O)N[C@H]2CCC[C@H](CC(F)F)[C@@H](Oc3ccccc3)[C@H](C)OC2=O)c1OC(C)=O` [Compound F82], the pest or weed control at 100 ppm fell in the range of 0 to 80% with Venturia inaequalis, 0 to 80% with Rhyncosporium secalis and 80 to 100% in experiment [1].

For the molecule `CCO[C@@H]1[C@@H](Cc2ccccc2)CCC[C@H](NC(=O)c2nccc(OC)c2OC(C)=O)C(=O)O[C@H]1C` [Compound F87], the pest or weed control at 100 ppm (in the experiment with Leptosphaeria nodorum; with Rhyncosporium secalis; in experiment [1]) was 80 to 100% in each case.

On to `CCCO[C@@H]1[C@@H](Cc2ccccc2)CCC[C@H](NC(=O)c2nccc(OC)c2OC(C)=O)C(=O)O[C@H]1C` [Compound F88], for which the pest or weed control at 100 ppm (with Leptosphaeria nodorum; in the experiment on Rhyncosporium secalis; in experiment [1]) was 80 to 100% in each case.

Consider `CCCO[C@@H]1[C@@H](Cc2ccc(F)cc2)CCC[C@H](NC(=O)c2nccc(OC)c2OCOC(C)=O)C(=O)O[C@H]1C` [Compound F101], for which the pest or weed control at 100 ppm (in the experiment on Rhyncosporium secalis; in experiment [1]) was 80 to 100% throughout.

For `COc1ccnc(C(=O)N[C@H]2CCC[C@H](Cc3ccccc3)[C@@H](OCC3CC3)[C@H](C)OC2=O)c1OCOC(C)=O` [Compound F107], the pest or weed control at 100 ppm (with Rhyncosporium secalis; in experiment [1]) was 80 to 100% in each case.

As for `COc1ccnc(C(=O)N[C@H]2CCC[C@H](CC3CCCCC3)[C@@H](OCC(C)C)[C@H](C)OC2=O)c1OCOC(C)=O` [Compound F113], the pest or weed control at 100 ppm (in the experiment with Rhyncosporium secalis; in experiment [1]) was 80 to 100% throughout.

Take `COc1ccc(C[C@H]2CCC[C@H](NC(=O)c3nccc(OC)c3OCOC(C)=O)C(=O)O[C@@H](C)[C@@H]2Oc2ccccc2)cc1` [Compound F114]: the pest or weed control at 100 ppm (in the experiment on Rhyncosporium secalis; in experiment [1]) was 80 to 100% each time.

Consider `COc1ccc(C[C@H]2CCC[C@H](NC(=O)c3nccc(OC)c3OCOC(C)=O)C(=O)O[C@@H](C)[C@@H]2OCC(C)C)cc1` [Compound F118], for which the pest or weed control at 100 ppm (in the experiment with Rhyncosporium secalis; in experiment [1]) was 80 to 100% throughout.

In the case of `CCCO[C@@H]1[C@@H](Cc2ccc(OC)cc2)CCC[C@H](NC(=O)c2nccc(OC)c2OCOC(C)=O)C(=O)O[C@H]1C` [Compound F119], the pest or weed control at 100 ppm (with Rhyncosporium secalis; in experiment [1]) was 80 to 100% in each case.

`COc1ccnc(C(=O)N[C@H]2CCC[C@H](Cc3ccc(C)cc3)[C@@H](OCC(C)C)[C@H](C)OC2=O)c1OCOC(C)=O` [Compound F126]: the pest or weed control at 100 ppm (in the experiment on Rhyncosporium secalis; in experiment [1]) was 80 to 100% throughout.

Take `COc1ccnc(C(=O)N[C@H]2CCC[C@H](CC(F)F)[C@@H](Oc3ccccc3)[C@H](C)OC2=O)c1OCOC(C)=O` [Compound F138]: the figures for the pest or weed control at 100 ppm (in the experiment on Venturia inaequalis; in the experiment with Rhyncosporium secalis; in experiment [1]) were 0 to 80%, 0 to 80% and 80 to 100%, respectively.

For the molecule `COc1ccnc(C(=O)N[C@H]2CCC[C@H](Cc3ccc(F)cc3F)[C@@H](OC(=O)c3ccco3)[C@H](C)OC2=O)c1OCOC(C)=O` [Compound F144], the pest or weed control at 100 ppm with Leptosphaeria nodorum, in the experiment with Venturia inaequalis and in the experiment on Rhyncosporium secalis was 80 to 100% in each case.

On to `COc1ccnc(C(=O)N[C@H]2CCC[C@H](Cc3ccc(F)cc3F)[C@@H](OCC(C)C)[C@H](C)OC2=O)c1OCOC(C)=O` [Compound F145], for which the pest or weed control at 100 ppm in the experiment with Leptosphaeria nodorum, in the experiment with Venturia inaequalis and in the experiment on Rhyncosporium secalis was 80 to 100% throughout.

On to `COc1ccnc(C(=O)N[C@H]2CCC[C@H](Cc3ccccc3)[C@@H](OCC(C)C)[C@H](C)OC2=O)c1OCOC(=O)C(C)C` [Compound F151], for which the pest or weed control at 100 ppm in the experiment with Leptosphaeria nodorum lay in the range of 80 to 100%; in the experiment on Venturia inaequalis it was 0 to 80%; in experiment [1] it was 80 to 100%.

For the molecule `COc1ccnc(C(=O)N[C@H]2CCC[C@H](Cc3ccccc3)[C@@H](OCC3CC3)[C@H](C)OC2=O)c1OCOC(=O)C(C)C` [Compound F152], the pest or weed control at 100 ppm (in the experiment with Rhyncosporium secalis; in experiment [1]) was 80 to 100% throughout.

As for `COc1ccnc(C(=O)N[C@H]2CCC[C@H](Cc3ccc(F)cc3F)[C@@H](OC(=O)c3ccco3)[C@H](C)OC2=O)c1OCOC(=O)C(C)C` [Compound F157], the results for the pest or weed control at 100 ppm in the experiment on Leptosphaeria nodorum, in the experiment with Venturia inaequalis and with Rhyncosporium secalis were 80 to 100%, 0 to 80% and 80 to 100%, respectively.

With `CCCO[C@@H]1[C@@H](Cc2ccc(F)cc2)CCC[C@H](NC(=O)c2nccc(OC)c2OCOC(=O)COCC)C(=O)O[C@H]1C` [Compound F167], the pest or weed control at 100 ppm (in the experiment with Venturia inaequalis; in the experiment on Rhyncosporium secalis; in experiment [1]) was 80 to 100% in each case.

For `CCOCC(=O)OCOc1c(OC)ccnc1C(=O)N[C@H]1CCC[C@H](Cc2ccccc2)[C@@H](OCC2CC2)[C@H](C)OC1=O` [Compound F173], the pest or weed control at 100 ppm (with Rhyncosporium secalis; in experiment [1]) was 80 to 100% in each case.

Take `CCOCC(=O)OCOc1c(OC)ccnc1C(=O)N[C@H]1CCC[C@H](CC2CCCCC2)[C@@H](OCC(C)C)[C@H](C)OC1=O` [Compound F175]: the pest or weed control at 100 ppm (with Rhyncosporium secalis; in experiment [1]) was 80 to 100% in each case.

On to `CCOCC(=O)OCOc1c(OC)ccnc1C(=O)N[C@H]1CCC[C@H](CCF)[C@@H](OCC(C)C)[C@H](C)OC1=O` [Compound F181], for which the figures for the pest or weed control at 100 ppm (in the experiment with Leptosphaeria nodorum; with Rhyncosporium secalis; in experiment [1]) were 80 to 100%, 0 to 80% and 80 to 100%, respectively.

Consider `CCCO[C@@H]1[C@@H](Cc2ccccc2)CCC[C@H](NC(=O)c2nccc(OC)c2OC(=O)CCOC)C(=O)O[C@H]1C` [Compound F198], for which the pest or weed control at 100 ppm (with Leptosphaeria nodorum; in the experiment with Rhyncosporium secalis; in experiment [1]) was 80 to 100% each time.
